According to patent US20230277449A1, “ORAL CAVITY POLYMERIC DELIVERY SYSTEMS” (YISSUM RESEARCH DEVELOPMENT COMPANY OF THE HEBREW …, priority 2020, published 2023):
Like-named read-outs stand apart in the source and are kept apart here.

Key:
[1] = in vivo; conditions: pig
Text: 2.1.1 HPMC-based core ABPD preparation: All polymers were sieved through a 50-mesh sieve prior to their use.
The dispersion was slowly cooled with constant vigorous stirring to room temperature to obtain a solid. This solid was introduced into 8 mm flat-faced punch and die set. […] The diameter of the core was changed to 10.5 mm due to compression.
DDW and vigorously stirred until full dissolution to homogenous solution. The pH of the solution was adjusted to 5.9 by H3PO4 and KOH. The solution was cooled at room temperature for 10 min with continuous stirring.
2.1.8 In-vivo protocol of buccal administration: Following full recovery of 1 week, these (and additional) pigs underwent experiments with administration of buccal devices. The preparation of pigs for the experiments were done as previously described. Pigs were positioned on their left side. Inner side of the left cheek was gently cleaned with a gauze. […] The liquefied core was carefully collected and stored at -80° C. […] Cheeks were excised. […] The other half was fixated in 4% formaldehyde and stored for at least a month. Afterwards, these samples were trimmed, embedded in paraffin and sectioned. They were stained with Hematoxilyn and Eosin and underwent a histopathological examination. As a first step, each of the first 3 pigs received a different ABPD (as previously described): hydroxypropyl methylcellulose (HPMC) - based core, witepsol H15 - based core, or hydrogel - based core. After results evaluation, 3 additional pigs received hydrogel -based core ABPDs. Lastly, 1 pig received a hydrogel-based core ABPD with modified parameters.
The tubes were vigorously shaken for approximately 20 h. […] The supernatant was transferred to a clean tube, to which 0.3 ml of 1M NaOH and 0.7 ml 0.2 M Na2HPO4 were added. The tubes were vortex-mixed for 2 min. The pH was adjusted to 7 - 9 by NaOH and HCl. […] The supernatant was transferred to a clean tube and evaporated to dryness under vacuum. 3 ml of 0.1 M HCl were added to the tissue once again and vigorously shaken for 20 min. Afterwards, the tissue underwent the same procedure one more time with supernatant collected to respective tubes as previously. […] Samples were 2000-fold diluted in the reconstitution diluent and injected into LC-MS-MS system.
Following this analysis PK parameters were obtained.

[2] = Ex-vivo permeability of APO, MTP and ATN in Ussing diffusion chamber; assay type: in vitro ADME, pig
Text: Each chamber includes a heating block for temperature control and needle valves for adjustment of carbogen gas flow for oxygenation and gas lift stirring. Buccal tissues of female pigs, ~100 kg, were used in the experiments. Pigs were exposed to anesthetic agents, antibiotics, contrast agents and sacrificed by over exposure to KC1. […] Immediately following euthanasia, buccal tissue was removed and placed in ice-cold modified Ringer’s buffer (pH 7.4). Buccal mucosa segments were trimmed to 800-1000 µm by surgical scissors and tweezers and mounted into Ussing diffusion chambers. The exposed tissue surface area was 0.5 cm^2 and buffered solutions volume in each cell was 3 ml. The system was preheated to 35° C. Modified Ringer buffer was added to the receiver compartment and simulated saliva buffer to the donor side. The tissue oxygenation and the solution mixing were performed by bubbling with carbogen gas. The system was equilibrated for 30 min followed by replacing the solutions and adding 20 µl of the test solutions to the donor side of the chamber to commence the experiment.
Solutions were freshly prepared on the days of the experiments. […] When testing the effect of organic solvents, 100 µl of the simulated saliva in the donor chamber were replaced by 100 µl of 1:1EtOH:PG solution. When testing the effect of NLF 70 µl of the simulated saliva in the donor chamber were replaced by 70 µl of NLF. […] The constituents are melted at 37° C. and mixed until a clear yellow homogenous solution is obtained.
3.1.3 Experimental protocol: 100 µl samples were taken from receiver compartment at the beginning of the experiments, at half an hour and every hour until the end of the experiments. 100 µl of fresh Ringer’s buffer solution were added each time to receiver compartment. The dilution of the concentration of tested substances in the receiver compartment was accounted for. […] All samples were stored at -20° C. pending analysis.
The analysis conditions were as follows: XTerra MS (Waters Inc.) C18 Column (3.5 µm, 2.1 mm × 100 mm), temperature 45° C., flow rate 0.2 ml/min and mobile phase with a linear gradient as detailed in Table 23.
Statistical significance was stated for p<0.05. […] Papp calculation and simulations of steady state plasma levels for in-vivo testing
Apparent permeability (Papp) is calculated by Eq. 5: […]

[3] = Simulation of rat plasma levels after buccal administration; conditions: rat 330 gr, Co = 19 mg/ml, A = 0.2 cm^2, Papp = 0.51*10^-6 cm/sec
[4] = cited from earlier work
[5] = IV administration of APO to pigs, pharmacokinetics; conditions: female, pig, plasma, 1 mg/kg

- Cmax after removal smaller than with the four pigs [1]: 2 fold
- Cmax of the peak higher than Css [1]: 4 fold
- time of Cmax [1]: 8.7 h
- time of the peak after ABPD removal [1]: about 45 min
- Css experimentally obtained ([1]; 1.37 mg/kg): 2.15 (±0.44) ng/ml
- theoretical Css predicted ([1]; 1.37 mg/kg): 2.24 ng/mL
- AUC ([1]; 2 mg/kg): 32.8 ng·h/mL
- AUC(0-inf) ([1]; 2 mg/kg): 50.7 ng·h/mL
- Cmax ([1]; 2 mg/kg): 9.7 ng/mL
- Papp lower at pH 5.9 than at pH 7.4 [2]: 6 fold
- Papp at […] ([2]; female, pig, pH 7.4, read-out: Apparent permeability (Papp)): 3.13 ×10⁻⁶ cm/s
- Papp ([2]; female, pig, pH 7.4 with 3.33% v/v of 1:1 ethanol: propylene glycol solution, read-out: Apparent permeability (Papp)): 11.6 ×10⁻⁶ cm/s
- Papp at 0.1 mM ([2]; female, pig, simulated saliva pH 5.9, mean (±SD), n=3, read-out: Apparent permeability (Papp)): 0.51 ×10⁻⁶ cm/s
- Papp at 0.1 mM ([2]; female, pig, simulated saliva pH 7.4, standard 0.1 mM, mean (±SD), n=3, read-out: Apparent permeability (Papp)): 3 ×10⁻⁶ cm/s
- Apparent permeability (Papp) ([2]; pH 7.4 with 3.33% v/v of 1:1 ethanol: propylene glycol solution): 11.63 10^-6 cm/sec
- lag-time ([2]; pH 7.4 without 10% v/v NLF): ~ 1 hour
- Apparent permeability (Papp) ([2]; simulated saliva pH 7.4, standard 0.1 mM, mean (±SD), n=3): 3.00 (0.26) 10^-6 cm/sec
- calculated Css [3]: 2.3 ng/mL
- AUC(0-inf) [5]: 107 ng·h/mL
- Vd [5]: 6.6 L/kg
- clearance [5]: 218 mL/min/kg
SMILES: CN1CCc2cccc3c2[C@H]1Cc1ccc(O)c(O)c1-3 [APO, apomorphine]
- CL ([4]; human, literature): 50 to 83 mL/min/kg
- Vd ([4]; human, literature): 1 to 2 L/kg
- excreted unchanged to urine ([4]; humans): up to 4%
